According to patent US8883745B2, “C—glycolipids with enhanced Th-1 profile” (New York University, priority 2006, dated 2014):

Assays:
Type in all cases: in vivo
IL-4 = IL-4 levels in sera upon i.v. glycolipid administration to C57BL/6 mice (ELISA); set-up: unit not given here
Procedure, shortened: (§1)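 Female C57BL/6 or BALB/c mice (5–6 weeks old) received 1 μg glycolipid i.v. in PBS. Sera were collected at 0, 2, 6, 12, 24, 48 and 72 h post-dose. Cytokine levels were quantified by sandwich ELISA on 1:10-diluted sera, with A450 read against known standards.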

IFN-γ [1] = experiment: IFN-γ levels in sera upon i.v. glycolipid administration to BALB/c mice (ELISA); set-up: IFN-γ levels, test 1 / IFN-γ levels, test 2 / IFN-γ levels, average / IFN-γ levels, Total: unit not given here
Procedure, shortened: as §1

IFN-γ [2] = experiment: IFN-γ levels in sera upon i.v. glycolipid administration to C57BL/6 mice (ELISA); set-up: IFN-γ levels, test 1 / IFN-γ levels, test 2 / IFN-γ levels, average / IFN-γ levels, Total / IFN-γ (B6): unit not given here
Procedure, shortened: as §1

IL-12 = IL-12 levels in sera upon i.v. glycolipid administration to C57BL/6 mice (ELISA); set-up: IL-12 levels, test 1 / IL-12 levels, test 2 / IL-12 levels, average / IL-12 levels, Total: unit not given here
Procedure, shortened: as §1

[3] = C57BL/6, ratio calculated from Tables 1-6
[4] = C57BL/6, serum, total over hours 0-72

CCCCCCCCCCCCCC[C@@H](O)[C@@H](O)[C@H](CC[C@H]1O[C@H](CO)[C@H](O)[C@H](O)[C@H]1O)NC(=O)CCCCCCCCCCCCCCCCCCCOCCCCC [A-5]
IL-4 level, average (IL-4; hour 0): 46 | IL-4 level, test 1 (IL-4; hour 0): 46 | IL-4 level, test 2 (IL-4; hour 0): 46 | IL-4 level, average (IL-4; hour 2): 308 | IL-4 level, test 1 (IL-4; hour 2): 283 | IL-4 level, test 2 (IL-4; hour 2): 333 | IL-4 level, average (IL-4; hour 6): 89 | IL-4 level, test 1 (IL-4; hour 6): 75 | IL-4 level, test 2 (IL-4; hour 6): 103 | IL-4 level, average (IL-4; hour 12): 45 | IL-4 level, test 1 (IL-4; hour 12): 42 | IL-4 level, test 2 (IL-4; hour 12): 48 | IL-4 level, average (IL-4; hour 24): 50 | IL-4 level, test 1 (IL-4; hour 24): 46 | IL-4 level, test 2 (IL-4; hour 24): 54 | IL-4 level, average (IL-4; hour 48): 46 | IL-4 level, test 1 (IL-4; hour 48): 44 | IL-4 level, test 2 (IL-4; hour 48): 48 | IL-4 level, average (IL-4; hour 72): 64.5 | IL-4 level, test 1 (IL-4; hour 72): 69 | IL-4 level, test 2 (IL-4; hour 72): 60 | IL-4 level, Total (IL-4; total over hours 0-72): 649 | IFN-γ/IL-4 (BALB/c) (IFN-γ [1]; BALB/c, ratio calculated from Tables 1-6): 39 | IFN-γ levels, average (IFN-γ [1]; BALB/c, serum, hour 0): 2.5 | IFN-γ levels, test 1 (IFN-γ [1]; BALB/c, serum, hour 0): 27 | IFN-γ levels, test 2 (IFN-γ [1]; BALB/c, serum, hour 0): 27 | IFN-γ levels, average (IFN-γ [1]; BALB/c, serum, hour 2): 101 | IFN-γ levels, test 1 (IFN-γ [1]; BALB/c, serum, hour 2): 118 | IFN-γ levels, test 2 (IFN-γ [1]; BALB/c, serum, hour 2): 84 | IFN-γ levels, average (IFN-γ [1]; BALB/c, serum, hour 6): 1665 | IFN-γ levels, test 1 (IFN-γ [1]; BALB/c, serum, hour 6): 1650 | IFN-γ levels, test 2 (IFN-γ [1]; BALB/c, serum, hour 6): 1680 | IFN-γ levels, average (IFN-γ [1]; BALB/c, serum, hour 12): 3566 | IFN-γ levels, test 1 (IFN-γ [1]; BALB/c, serum, hour 12): 4018 | IFN-γ levels, test 2 (IFN-γ [1]; BALB/c, serum, hour 12): 3114 | IFN-γ levels, average (IFN-γ [1]; BALB/c, serum, hour 24): 9104.5 | IFN-γ levels, test 1 (IFN-γ [1]; BALB/c, serum, hour 24): 8738 | IFN-γ levels, test 2 (IFN-γ [1]; BALB/c, serum, hour 24): 9471 | IFN-γ levels, average (IFN-γ [1]; BALB/c, serum, hour 48): 425.5 | IFN-γ levels, test 1 (IFN-γ [1]; BALB/c, serum, hour 48): 453 | IFN-γ levels, test 2 (IFN-γ [1]; BALB/c, serum, hour 48): 398 | IFN-γ levels, average (IFN-γ [1]; BALB/c, serum, hour 72): 56 | IFN-γ levels, test 1 (IFN-γ [1]; BALB/c, serum, hour 72): 54 | IFN-γ levels, test 2 (IFN-γ [1]; BALB/c, serum, hour 72): 58 | IFN-γ levels, Total (IFN-γ [1]; BALB/c, serum, total over hours 0-72): 14922 | effect: higher/extended IFN-γ and IL-12 with much lower IL-4 compared to α-GalCer (KRN) (IFN-γ [1]; C57BL/6 and BALB/c mice, 1 μg i.v.): particularly pronounced | IFN-γ/IL-4 (B6) (IFN-γ [2]; [3]): 18 | IFN-γ levels, average (IFN-γ [2]; C57BL/6, serum, hour 0): 31 | IFN-γ levels, test 1 (IFN-γ [2]; C57BL/6, serum, hour 0): 31 | IFN-γ levels, test 2 (IFN-γ [2]; C57BL/6, serum, hour 0): 31 | IFN-γ levels, average (IFN-γ [2]; C57BL/6, serum, hour 2): 112.5 | IFN-γ levels, test 1 (IFN-γ [2]; C57BL/6, serum, hour 2): 130 | IFN-γ levels, test 2 (IFN-γ [2]; C57BL/6, serum, hour 2): 95 | IFN-γ levels, average (IFN-γ [2]; C57BL/6, serum, hour 6): 929 | IFN-γ levels, test 1 (IFN-γ [2]; C57BL/6, serum, hour 6): 930 | IFN-γ levels, test 2 (IFN-γ [2]; C57BL/6, serum, hour 6): 928 | IFN-γ levels, average (IFN-γ [2]; C57BL/6, serum, hour 12): 2108 | IFN-γ levels, test 1 (IFN-γ [2]; C57BL/6, serum, hour 12): 2215 | IFN-γ levels, test 2 (IFN-γ [2]; C57BL/6, serum, hour 12): 2001 | IFN-γ levels, average (IFN-γ [2]; C57BL/6, serum, hour 24): 8196.5 | IFN-γ levels, test 1 (IFN-γ [2]; C57BL/6, serum, hour 24): 7680 | IFN-γ levels, test 2 (IFN-γ [2]; C57BL/6, serum, hour 24): 8713 | IFN-γ levels, average (IFN-γ [2]; C57BL/6, serum, hour 48): 295 | IFN-γ levels, test 1 (IFN-γ [2]; C57BL/6, serum, hour 48): 249 | IFN-γ levels, test 2 (IFN-γ [2]; C57BL/6, serum, hour 48): 341 | IFN-γ levels, average (IFN-γ [2]; C57BL/6, serum, hour 72): 102 | IFN-γ levels, test 1 (IFN-γ [2]; C57BL/6, serum, hour 72): 101 | IFN-γ levels, test 2 (IFN-γ [2]; C57BL/6, serum, hour 72): 103 | IFN-γ levels, Total (IFN-γ [2]; [4]): 11775 | IL-12/IL-4 (B6) (IL-12; [3]): 3.4 | IL-12 levels, average (IL-12; C57BL/6, serum, hour 0): 5 | IL-12 levels, test 1 (IL-12; C57BL/6, serum, hour 0): 5 | IL-12 levels, test 2 (IL-12; C57BL/6, serum, hour 0): 5 | IL-12 levels, average (IL-12; C57BL/6, serum, hour 2): 115.5 | IL-12 levels, test 1 (IL-12; C57BL/6, serum, hour 2): 117 | IL-12 levels, test 2 (IL-12; C57BL/6, serum, hour 2): 114 | IL-12 levels, average (IL-12; C57BL/6, serum, hour 6): 1346.5 | IL-12 levels, test 1 (IL-12; C57BL/6, serum, hour 6): 1351 | IL-12 levels, test 2 (IL-12; C57BL/6, serum, hour 6): 1342 | IL-12 levels, average (IL-12; C57BL/6, serum, hour 12): 518.5 | IL-12 levels, test 1 (IL-12; C57BL/6, serum, hour 12): 535 | IL-12 levels, test 2 (IL-12; C57BL/6, serum, hour 12): 502 | IL-12 levels, average (IL-12; C57BL/6, serum, hour 24): 87 | IL-12 levels, test 1 (IL-12; C57BL/6, serum, hour 24): 96 | IL-12 levels, test 2 (IL-12; C57BL/6, serum, hour 24): 78 | IL-12 levels, average (IL-12; C57BL/6, serum, hour 48): 58 | IL-12 levels, test 1 (IL-12; C57BL/6, serum, hour 48): 52 | IL-12 levels, test 2 (IL-12; C57BL/6, serum, hour 48): 64 | IL-12 levels, average (IL-12; C57BL/6, serum, hour 72): 49.5 | IL-12 levels, test 1 (IL-12; C57BL/6, serum, hour 72): 46 | IL-12 levels, test 2 (IL-12; C57BL/6, serum, hour 72): 53 | IL-12 levels, Total (IL-12; [4]): 2182
